This note sets out measurements from patent US9346780B2, “Process for producing dihydro-2H-pyran derivatives” (OKINAWA INSTITUTE OF SCIENCE AND TECHNOLOGY SCHOOL …, priority 2012, dated 2016).

As usually defined, the IC50 is the point on the concentration scale where inhibition reaches its midpoint. A lower IC50 goes with greater potency in that assay.

The data set can be described thus: Cytotoxicity, K562 cell growth inhibition (Cell Counting Kit-8 / WST-8). It is filed as cell-based. To be noted: human; K562 cells; 6-48 hrs incubation; WST-8 absorbance at 450 nm; concentration inhibiting the cell growth by 50%. Here is the method:
K562 cells (American Type Culture Collection) were cultured in a culture medium containing 10% (v/v) fetal calf serum (FCS) (manufactures by Sigma) to logarithmic phase. The cells were seeded in 96-well microtiter plate at a density of 5000 cells/well in 100 μL cell culture medium and incubated at 37° C. and 5% CO2 in a humidified incubator overnight. The test compounds of various concentrations were added in a well at 10 fold concentration in 1/10 volume of medium without FCS. After 6-48 hrs incubation at 37° C. in the CO2 incubator, 10 μL solution of the viable cell counting reagent, Cell counting Kit-8 (5 mmol/L WST-8, 0.2 mmol/L 1-Methoxy PMS, 150 mmol/L NaCl) (manufactured by Dojindo) was added to each well, and reacted for 1 to 4 hours in the CO2 incubator. After the incubation, an absorbance of formazan, generated by reduction of WST-8 was determined at 450 nm using a microplate reader.
The assay readout is correlated with the viable cell numbers. Small values correspond to high inhibition and larger values to low inhibition of the cell growth. To determine IC50 values (i.e. the concentration inhibiting the cell growth by 50%) of the compounds of formula II, IV and V, several assays were made with a range of concentrations chosen empirically to give low, high and intermediate inhibition of the growth and determined using the curve fitting software.
IC50 values can be converted logarithmically to pIC50 values (−log IC50), in which higher values indicate exponentially greater potency. The IC50 value is not an absolute value but depends on experimental conditions e.g. concentrations employed.

In the case of `CCOC(=O)[C@]1(O)C[C@H](c2ccc(Br)cc2)C[C@](O)(C(=O)OCC)[C@H]1[N+](=O)[O-]`, the midpoint of inhibition, the IC50, lay at 144 µM.

Molecule `CCOC(=O)C1=CC(c2ccc(Br)cc2)CC(O)(C(=O)OCC)O1` (stereo not drawn) showed an IC50 of 80 µM. Against the preceding molecule, the IC50 is about 1.8-fold lower.

`CCOC(=O)C1=CC(c2ccco2)CC(F)(C(=O)OCC)O1` (stereo not drawn) yielded a half-maximal inhibitory concentration (IC50) of 135 µM.

Regarding `COC(=O)[C@@]1(O)C[C@@H](c2ccc([N+](=O)[O-])cc2)C[C@@](O)(C(=O)OCc2ccccc2)[C@@H]1[N+](=O)[O-]`, the IC50 was 90 µM.

`CCOC(=O)[C@]1(O)C[C@H](c2ccc(C(F)(F)F)cc2)C[C@](O)(C(=O)OCC)[C@H]1[N+](=O)[O-]` displayed an IC50 of 144 µM.

Regarding `O=C(OCc1ccccc1)[C@]1(O)C[C@H](c2ccccc2)C[C@](O)(C(=O)OCc2ccccc2)[C@H]1[N+](=O)[O-]`, 54 µM corresponded to half-maximal inhibition (IC50).

`CCOC(=O)C1=CC(c2ccc([N+](=O)[O-])cc2)CC(Nc2ccc(OC)cc2)(C(=O)OCC)O1` (stereo not drawn): half-maximal inhibition (IC50) required 12 µM. This IC50 lies about 4.5-fold lower than the previous one.

For `CCOC(=O)C1=CC(c2ccc([N+](=O)[O-])cc2)CC(C(=O)OCC)=NN1` (stereo not drawn), it took 148 µM to reach half-maximal inhibition (IC50).

For the molecule `CCOC(=O)C1=CC(c2ccc(Cl)cc2)CC(F)(C(=O)OCC)O1` (stereo not drawn), the IC50 came out at 52 µM. This IC50 lies about 2.8-fold lower than the previous one.

The molecule `CCOC(=O)[C@]1(O)C[C@H](C2CCCCC2)C[C@](O)(C(=O)OCC)[C@H]1[N+](=O)[O-]` had an IC50 of 105 µM.

Molecule `COC(=O)C1=CC(c2ccc([N+](=O)[O-])cc2)CC(O)(C(=O)OCc2ccccc2)O1` (stereo not drawn) showed an IC50 of 81 µM. This IC50 and that of the molecule before are within 1.5-fold of each other.

`CCOC(=O)C1=CC(c2ccc([N+](=O)[O-])cc2)CC(F)(C(=O)OCC)O1` (stereo not drawn) showed an IC50 of 11 µM.

The molecule `O=C(OCc1ccccc1)C1=CC(c2ccccc2)CC(O)(C(=O)OCc2ccccc2)O1` (stereo not drawn) registered an IC50 of 149 µM.

As to `CCOC(=O)C1=CC(c2ccc(Br)cc2)CC(F)(C(=O)OCC)O1` (stereo not drawn), the IC50 is 53 µM. This IC50 lies about 2.8-fold lower than the previous one.

`CCOC(=O)C1=CC(C2CCCCC2)CC(O)(C(=O)OCC)O1` (stereo not drawn) showed an IC50 of 58 µM. This IC50 and that of the molecule before are within 1.5-fold of each other.
